The values that follow come from patent US8778871B2 (Takeda Pharmaceutical Company Limited, priority 2004, dated 2014).

Non-standard residues stand in square brackets, D forms with d. Residues, ends and D or L forms follow the SMILES beside them. No end group written: not given here. *: point of attachment. Phe(4-Cl) = N[C@@H](Cc1ccc(Cl)cc1)C(=O)O; Phe(2-Cl) = N[C@@H](Cc1ccccc1Cl)C(=O)O; 1Nal = N[C@@H](Cc1cccc2ccccc12)C(=O)O; 2Nal = N[C@@H](Cc1ccc2ccccc2c1)C(=O)O; Arg(Me) = CNC(=N)NCCC[C@H](N)C(=O)O; Bta = N[C@@H](Cc1csc2ccccc12)C(=O)O; Fmoc = O=C(OCC1c2ccccc2-c2ccccc21)*; Cha = N[C@@H](CC1CCCCC1)C(=O)O; azaGly = NNC(=O)O

For this assay, the target named is T1, hOT7T175 (Homo sapiens, UniProt Q969F8, L364H).
T1 construct: expressed in transfected cells
T1 sequence (Q969F8 whole entry L364H): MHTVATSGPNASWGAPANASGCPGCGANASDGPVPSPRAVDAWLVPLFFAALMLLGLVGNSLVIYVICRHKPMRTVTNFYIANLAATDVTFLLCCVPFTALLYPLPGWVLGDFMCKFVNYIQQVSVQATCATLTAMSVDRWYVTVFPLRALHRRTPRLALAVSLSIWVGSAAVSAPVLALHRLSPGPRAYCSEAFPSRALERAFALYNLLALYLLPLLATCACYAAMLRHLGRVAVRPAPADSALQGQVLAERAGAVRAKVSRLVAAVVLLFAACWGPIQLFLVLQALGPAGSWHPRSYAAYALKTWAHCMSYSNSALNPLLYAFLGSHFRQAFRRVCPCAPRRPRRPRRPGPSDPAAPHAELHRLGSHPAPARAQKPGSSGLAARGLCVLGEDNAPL
The experiment in a line: Intracellular Ca ion level-increasing activity using FLIPR (180 seconds; specific activity to Metastin (1-54)). It counts as cell-based. The note with it: hOT7T175/CHO, relative to Metastin (1-54) = 1.
Take `CC(C)C[C@H](NC(=O)CNC(=O)[C@H](Cc1ccccc1)NC(=O)[C@H](CO)NC(=O)[C@H](CC(N)=O)NC(=O)[C@H](Cc1c[nH]c2ccccc12)NC(=O)[C@H](CC(N)=O)NC(=O)[C@@H](N)Cc1ccc(O)cc1)C(=O)N[C@@H](CCCNC(=N)N)C(=O)N[C@@H](Cc1cccc(C(F)(F)F)c1)C(N)=O` [Compound No. 200]: the “Specific Act. (intracellular Ca ion level-increasing activity, specific activity to Metastin (1-54))” value was determined as 10.

For `CC(C)C[C@H](NC(=O)CNC(=O)[C@H](Cc1ccccc1)NC(=O)[C@H](CO)NC(=O)[C@H](CC(N)=O)NC(=O)[C@H](Cc1c[nH]c2ccccc12)NC(=O)[C@H](CC(N)=O)NC(=O)[C@@H](N)Cc1ccc(O)cc1)C(=O)N[C@@H](CCCNC(=N)N)C(=O)N[C@@H](Cc1ccc([N+](=O)[O-])cc1)C(N)=O` [Compound No. 132], the “Specific Act. (intracellular Ca ion level-increasing activity, specific activity to Metastin (1-54))” value was found to be 10.

For `CNC(=N)NCCC[C@H](NC(=O)[C@H](CC(C)C)NC(=O)CNC(=O)[C@H](CC1CCCCC1)NC(=O)[C@H](CO)NC(=O)[C@H](CC(N)=O)NC(=O)[C@H](CC1CCCCC1)NC(=O)[C@H](CC(N)=O)NC(=O)[C@H](N)Cc1ccc(O)cc1)C(=O)N[C@@H](Cc1c[nH]c2ccccc12)C(N)=O` [Compound No. 182, D-Tyr-Asn-Cha-Asn-Ser-Cha-Gly-Leu-Arg(Me)-Trp-NH2] (H-[dY]N[Cha]NS[Cha]GL[Arg(Me)]W-NH2), the “Specific Act. (intracellular Ca ion level-increasing activity, specific activity to Metastin (1-54))” value was found to be 5.

Consider `CCCNC(=N)NCCC[C@H](NC(=O)[C@H](CC(C)C)NC(=O)CNC(=O)[C@H](Cc1ccccc1)NC(=O)[C@H](CO)NC(=O)[C@H](CC(N)=O)NC(=O)[C@H](Cc1c[nH]c2ccccc12)NC(=O)[C@H](CC(N)=O)NC(=O)[C@H](N)Cc1ccc(O)cc1)C(=O)N[C@@H](Cc1ccccc1)C(N)=O` [Compound No. 193], for which the “Specific Act. (intracellular Ca ion level-increasing activity, specific activity to Metastin (1-54))” value is “½”.

Take `CC(C)C[C@H](NC(=O)CNC(=O)[C@H](Cc1ccccc1)NC(=O)[C@H](CO)NC(=O)[C@H](CC(N)=O)NC(=O)[C@H](Cc1c[nH]c2ccccc12)NC(=O)[C@H](CC(N)=O)NC(=O)[C@@H](N)Cc1ccc(O)cc1)C(=O)N[C@@H](CCCNC(=N)N)C(=O)N[C@@H](Cc1ccc(N)cc1)C(N)=O` [Compound No. 131]: the “Specific Act. (intracellular Ca ion level-increasing activity, specific activity to Metastin (1-54))” value was found to be 3.

As to `COc1ccc(C[C@H](NC(=O)[C@H](CCCNC(=N)N)NC(=O)[C@H](CC(C)C)NC(=O)CNC(=O)[C@H](Cc2ccccc2)NC(=O)[C@H](CO)NC(=O)[C@H](CC(N)=O)NC(=O)[C@H](Cc2c[nH]c3ccccc23)NC(=O)[C@H](CC(N)=O)NC(=O)[C@@H](N)Cc2ccc(O)cc2)C(N)=O)cc1` [Compound No. 18] (H-YNWNSFGLRY(Me)-NH2), the “Specific Act. (intracellular Ca ion level-increasing activity, specific activity to Metastin (1-54))” value worked out at 1.

With `CNC(=N)NCCC[C@H](NC(=O)[C@H](CC(C)C)NC(=O)CNC(=O)[C@H](Cc1ccccc1)NC(=O)[C@H](CO)NC(=O)[C@H](CC(N)=O)NC(=O)[C@H](C)NC(=O)[C@H](CC(N)=O)NC(=O)[C@H](N)Cc1ccc(O)cc1)C(=O)N[C@@H](Cc1ccccc1)C(N)=O` [Compound No. 169] (H-[dY]NANSFGL[Arg(Me)]F-NH2), the “Specific Act. (intracellular Ca ion level-increasing activity, specific activity to Metastin (1-54))” value was found to be 2.

Turning to `CC(C)C[C@H](NC(=O)CNC(=O)[C@H](Cc1ccccc1)NC(=O)[C@H](CO)NC(=O)[C@H](CC(N)=O)NC(=O)[C@H](Cc1c[nH]c2ccccc12)NC(=O)OCC1c2ccccc2-c2ccccc21)C(=O)N[C@@H](CCCNC(=N)N)C(=O)N[C@@H](Cc1ccccc1)C(N)=O` [Compound No. 54] (Fmoc-WNSFGLRF-NH2), the “Specific Act. (intracellular Ca ion level-increasing activity, specific activity to Metastin (1-54))” value was found to be 5.

For `CNC(=N)NCCC[C@H](NC(=O)[C@H](CC(C)C)NC(=O)NNC(=O)[C@H](Cc1ccccc1)NC(=O)[C@H](CO)NC(=O)[C@H](CC(N)=O)NC(=O)[C@H](Cc1ccc2ccccc2c1)NC(=O)[C@H](CC(N)=O)NC(=O)[C@H](N)Cc1ccc(O)cc1)C(=O)N[C@@H](Cc1ccccc1)C(N)=O` [Compound No. 246, D-Tyr-Asn-Nal(2)-Asn-Ser-Phe-AzaGly-Leu-Arg(Me)-Phe-NH2] (H-[dY]N[2Nal]NSF[azaGly]L[Arg(Me)]F-NH2), the “Specific Act. (intracellular Ca ion level-increasing activity, specific activity to Metastin (1-54))” value was 2.

`CC(C)C[C@H](NC(=O)CNC(=O)[C@H](Cc1ccccc1)NC(=O)[C@H](CO)NC(=O)[C@H](CC(N)=O)NC(=O)[C@H](Cc1c[nH]c2ccccc12)NC(=O)[C@H](CC(N)=O)NC(=O)[C@@H](N)Cc1ccc(O)cc1)C(=O)N[C@@H](CCCNC(=N)N)C(=O)N[C@@H](Cc1c(F)c(F)c(F)c(F)c1F)C(N)=O` [Compound No. 111]: the “Specific Act. (intracellular Ca ion level-increasing activity, specific activity to Metastin (1-54))” value is listed as 3.

As for “D-Tyr-Asn-Trp-Gln-Ser-Phe-Gly-Leu-Arg(Me)-Phe-NH2 ([dY]NWQSFGL[Arg(Me)]F-NH2) [Compound No. 209]”, the “Specific Act. (intracellular Ca ion level-increasing activity, specific activity to Metastin (1-54))” value is “½”.

For H-YNWNSFALRF-NH2 [Compound No. 50], the “Specific Act. (intracellular Ca ion level-increasing activity, specific activity to Metastin (1-54))” value is 30.

In the case of `CC(C)C[C@H](NC(=O)CNC(=O)[C@H](Cc1ccccc1)NC(=O)[C@H](CO)NC(=O)[C@H](CC(N)=O)NC(=O)[C@H](Cc1c[nH]c2ccccc12)NC(=O)[C@H](CC(N)=O)NC(=O)[C@@H](N)Cc1ccc(O)cc1)C(=O)N[C@@H](CCCNC(=N)N)C(=O)N[C@@H](Cc1csc2ccccc12)C(N)=O` [Compound No. 189] (H-YNWNSFGLR[Bta]-NH2), the “Specific Act. (intracellular Ca ion level-increasing activity, specific activity to Metastin (1-54))” value is 10.

On to `CCNC(=N)NCCC[C@H](NC(=O)[C@H](CC(C)C)NC(=O)CNC(=O)[C@H](Cc1ccccc1)NC(=O)[C@H](CO)NC(=O)[C@H](CC(N)=O)NC(=O)[C@H](Cc1c[nH]c2ccccc12)NC(=O)[C@H](CC(N)=O)NC(=O)[C@@H](N)Cc1ccc(O)cc1)C(=O)N[C@@H](Cc1ccccc1)C(N)=O` [Compound No. 220], for which the “Specific Act. (intracellular Ca ion level-increasing activity, specific activity to Metastin (1-54))” value was determined as 5.

`CC(C)C[C@H](NC(=O)CNC[C@H](Cc1ccccc1)NC(=O)[C@H](CO)NC(=O)[C@H](CC(N)=O)NC(=O)[C@H](Cc1c[nH]c2ccccc12)NC(=O)[C@H](CC(N)=O)NC(=O)[C@@H](N)Cc1ccc(O)cc1)C(=O)N[C@@H](CCCNC(=N)N)C(=O)N[C@@H](Cc1ccccc1)C(N)=O` [Compound No. 163, Tyr-Asn-Trp-Asn-Ser-PheΨ(CH2NH)Gly-Leu-Arg-Phe-NH2]: the “Specific Act. (intracellular Ca ion level-increasing activity, specific activity to Metastin (1-54))” value is 1.

Consider `CNC(=N)NCCC[C@H](NC(=O)[C@H](CC(C)C)NC(=O)CNC(=O)[C@H](Cc1ccccc1)NC(=O)[C@H](CO)NC(=O)[C@H](CC(N)=O)NC(=O)[C@@H](NC(=O)[C@H](CC(N)=O)NC(=O)[C@H](N)Cc1ccc(O)cc1)[C@@H](C)O)C(=O)N[C@@H](Cc1ccccc1)C(N)=O` [Compound No. 205] (H-[dY]NTNSFGL[Arg(Me)]F-NH2), for which the “Specific Act. (intracellular Ca ion level-increasing activity, specific activity to Metastin (1-54))” value amounted to 10.

For H-DNWNSFGLRF-NH2 [Compound No. 75], the “Specific Act. (intracellular Ca ion level-increasing activity, specific activity to Metastin (1-54))” value was determined as 1.

Turning to `CNC(=N)NCCC[C@H](NC(=O)[C@H](CC(C)C)NC(=O)NNC(=O)[C@H](Cc1ccccc1)NC(=O)[C@H](CO)NC(=O)[C@H](CC(N)=O)NC(=O)[C@H](Cc1ccccc1Cl)NC(=O)[C@H](CC(N)=O)NC(=O)[C@H](N)Cc1ccc(O)cc1)C(=O)N[C@@H](Cc1ccccc1)C(N)=O` [Compound No. 247, D-Tyr-Asn-Phe(2Cl)-Asn-Ser-Phe-AzaGly-Leu-Arg(Me)-Phe-NH2] (H-[dY]N[Phe(2-Cl)]NSF[azaGly]L[Arg(Me)]F-NH2), the “Specific Act. (intracellular Ca ion level-increasing activity, specific activity to Metastin (1-54))” value is given as 1.

For the compound `CC(C)C[C@H](NC(=O)CNC(=O)[C@H](Cc1ccccc1)NC(=O)[C@H](CO)NC(=O)[C@H](CC(N)=O)NC(=O)[C@H](Cc1c[nH]c2ccccc12)NC(=O)[C@H](CC(N)=O)NC(=O)[C@@H](N)Cc1ccc(O)cc1)C(=O)N[C@@H](CCCNC(=N)N)C(=O)N[C@@H](Cc1cccc2ccccc12)C(N)=O` [Compound No. 133] (H-YNWNSFGLR[1Nal]-NH2), the “Specific Act. (intracellular Ca ion level-increasing activity, specific activity to Metastin (1-54))” value came out at 3.

Regarding `CNC(=N)NCCC[C@H](NC(=O)[C@H](CC(C)C)NC(=O)NNC(=O)[C@H](Cc1ccccc1)NC(=O)[C@H](CO)NC(=O)[C@H](CC(N)=O)NC(=O)[C@H](Cc1ccc(Cl)cc1)NC(=O)[C@H](CC(N)=O)NC(=O)[C@H](N)Cc1ccc(O)cc1)C(=O)N[C@@H](Cc1ccccc1)C(N)=O` [Compound No. 249, D-Tyr-Asn-Phe(4Cl)-Asn-Ser-Phe-AzaGly-Leu-Arg(Me)-Phe-NH2] (H-[dY]N[Phe(4-Cl)]NSF[azaGly]L[Arg(Me)]F-NH2), the “Specific Act. (intracellular Ca ion level-increasing activity, specific activity to Metastin (1-54))” value came to 1.

As to H-YNWNLFGLRF-NH2 [Compound No. 24], the “Specific Act. (intracellular Ca ion level-increasing activity, specific activity to Metastin (1-54))” value came to 1.

Turning to `CC(C)C[C@H](NC(=O)CNC(=O)[C@H](Cc1cccc2ccccc12)NC(=O)[C@H](CO)NC(=O)[C@H](CC(N)=O)NC(=O)[C@H](Cc1c[nH]c2ccccc12)NC(=O)[C@H](CC(N)=O)NC(=O)[C@@H](N)Cc1ccc(O)cc1)C(=O)N[C@@H](CCCNC(=N)N)C(=O)N[C@@H](Cc1ccccc1)C(N)=O` [Compound No. 151, Tyr-Asn-Trp-Asn-Ser-Nal(1)-Gly-Leu-Arg-Phe-NH2] (H-YNWNS[1Nal]GLRF-NH2), the “Specific Act. (intracellular Ca ion level-increasing activity, specific activity to Metastin (1-54))” value stood at 1.

`CNC(=N)NCCC[C@H](NC(=O)[C@H](CC(C)C)NC(=O)NNC(=O)[C@H](Cc1ccccc1)NC(=O)[C@H](CO)NC(=O)[C@H](CC(N)=O)NC(=O)[C@H](Cc1ccccc1)NC(=O)[C@H](CC(N)=O)NC(=O)[C@H](N)Cc1ccc(O)cc1)C(=O)N[C@@H](Cc1ccccc1)C(N)=O` [Compound No. 244, D-Tyr-Asn-Phe-Asn-Ser-Phe-AzaGly-Leu-Arg(Me)-Phe-NH2] (H-[dY]NFNSF[azaGly]L[Arg(Me)]F-NH2): the “Specific Act. (intracellular Ca ion level-increasing activity, specific activity to Metastin (1-54))” value turned out to be 1.

Turning to `CNC(=N)NCCC[C@H](NC(=O)[C@H](CC(C)C)NC(=O)NNC(=O)[C@H](Cc1ccccc1)NC(=O)[C@H](CO)NC(=O)[C@H](CC(N)=O)NC(=O)[C@H](C)NC(=O)[C@H](CC(N)=O)NC(=O)[C@H](N)Cc1ccc(O)cc1)C(=O)N[C@@H](Cc1ccccc1)C(N)=O` [Compound No. 235, D-Tyr-Asn-Ala-Asn-Ser-Phe-AzaGly-Leu-Arg(Me)-Phe-NH2] (H-[dY]NANSF[azaGly]L[Arg(Me)]F-NH2), the “Specific Act. (intracellular Ca ion level-increasing activity, specific activity to Metastin (1-54))” value amounted to 1.
